Test results: ChEMBL document CHEMBL5360649, “Potential Broad-Spectrum Antimicrobial, Wound Healing, and Disinfectant Cationic Peptide Crafted from Snake Venom” (J Med Chem, 2023)
Calls of active or inactive are those of the source. No cut-off for these calls is given here.

What was measured:
[1] = tested on: Staphylococcus aureus; assay: Induction of morphological changes in methicillin-resistant Staphylococcus aureus assessed as membrane damage at MIC concentration incubated for 60 mins by SEM analysis; assay type: functional, organism-based
[2] = Stability in human serum assessed as intact peptide remaining at 1 mM measured after 12 hrs by HPLC analysis; assay type: ADME, cell-free; details: read-out: Stability
[3] = species on record: Rattus norvegicus; assay: Induction of wound healing in surgically-induced Albino Wistar rat wound model inoculated with methicillin-resistant Staphylococcus aureus assessed as sebaceous gland formation at 10 uM measured after 11 days by H&E staining based analysis; assay type: functional; details: time 11.0 day
[4] = tested on: Staphylococcus aureus; assay: Induction of morphological changes in methicillin-resistant Staphylococcus aureus assessed as cellular destruction at MIC concentration incubated for 6 hrs by SEM analysis; assay type: functional, organism-based
[5] = tested on: Klebsiella pneumoniae; assay: Antibiofilm activity against Klebsiella pneumoniae assessed as clearance of preformed biofilm at 0.5 times of MIC incubated for 24 hrs by CV staining based analysis relative to control; assay type: functional
[6] = tested on: Escherichia coli; assay: Induction of morphological changes in Escherichia coli at MIC concentration incubated for 6 hrs by SEM analysis; assay type: functional, organism-based
[7] = species on record: Rattus norvegicus; assay: Induction of wound healing in surgically-induced Albino Wistar rat wound model inoculated with methicillin-resistant Staphylococcus aureus assessed as hair follicle formation at 10 uM measured after 11 days by H&E staining based analysis; assay type: functional; details: time 11.0 day

In the case of H-FLPIIKWVKKFFWRWR-OH, the Activity [1] is reported as “Active”, the remaining at 12 h, 1000 µM [2] is reported as 54.5% and the Activity [3] is reported as “Active”. The Activity [4] was “Active”, the Activity [5] was about 52% and the Activity [6] was “Active”. For the same substance, the Activity [7] was “Active”.
